Data reported in US10426784B2, “Imidazodiazepine compound” (Astellas Pharma Inc., priority 2015, dated 2019).

What was measured:
[1] = target: T1, human dopamine D1 receptor (Homo sapiens, UniProt P21728); experiment: Evaluation of positive allosteric modulating action (PAM action): left shift of dopamine dose-response curve (cAMP, TR-FRET); type: cell-based; conditions: human dopamine D1 receptor stably-expressing CHO cells
T1 construct: expressed in transfected cells
Method: Buffer solution for assay=αMEM containing 1 mM IBMX
Buffer solution for dilution=αMEM containing 1 mM IBMX and 0.8 mM ascorbic acid
Evaluation of Positive allosteric modulating action (PAM action)
The PAM action of the compound of the present invention was evaluated by the ratio of a left shift of a dopamine dose response curve.
The left shift means that the dopamine dose response curve, in which the logarithm of dose is set to abscissa (X axis) and the response (in this test, cAMP concentration) is set to ordinate (Y axis), is parallely shifted in the negative direction of the X axis by the addition of PAM.
The coding sequence of a human dopamine D1 receptor (Accession No.: NM_000794.3) was amplified by PCR, and was subcloned into a pEF-BOS vector. […]
To measure cAMP, LANCE Ultra cAMP kit (PerkinElmer Inc., LANCE is a registered trademark) was used. […] The plate was incubated at room temperature for 1 hour, and then the fluorescence intensity at 665 nm and 620 nm was measured (excitation wavelength: 320 nm, fluorescence wavelength: 665 nm, 620 nm) by TR-FRET method using a plate reader (2103 Multilabel Plate Reader (registered trademark Envision), PerkinElmer, Inc.). The fluorescence intensity ratio [(fluorescence intensity at 665 nm)/(fluorescence intensity at 620 nm)×10^4] of each well was calculated, and was used for analysis. […]

male Long Evans rats = experiment: Attentional set-shifting task (sub-chronic PCP rats); type: in vivo, rat; conditions: single oral administration after CD
Method: Attentional Set-Shifting Task
The compound of the present invention was evaluated by an attentional set-shifting task test.
The attentional set-shifting task test, as in WCST, is a test for measuring flexibility with respect to the change of a rule (clue). The effect on executive function disorder which is one of higher brain dysfunctions can be evaluated by this test.
After allowing the mouse to learn a task that food reward is obtained if there is a clue, in the case where the clue is shifted within a dimension (for example, the clue is changed from a form to another form), both normal animal and pathological animal having abnormality in the prefrontal cortex of the brain (hereinafter, referred to as “pathological animal”) can discriminate clues to obtain food reward. However, after allowing the mouse to learn a task of obtaining food reward by a clue, in the case where the clue is shifted to the outside of a dimension (for example, the clue is changed from a form to aroma), the normal animal can discriminate a clue of food, but the pathological animal cannot discriminate the clue of food. This test puts this behavior to practical use.
The following experiments were carried out with reference to European Journal of Neuroscience, 2005, vol. 21, p. 1070-1076, which was partially modified. […]

ddY male mouse = experiment: Y-maze test (spontaneous alternation behavior, MK-801-induced cognitive impairment); type: in vivo; conditions: single oral administration 1 hour before test, MK-801 0.15 mg/kg i.p.
Method: The improvement effect on cognitive impairment of the compound of the present invention was evaluated using Y-maze test that is an experimental system of spontaneous alternation behavior.
As the Y-maze, a maze in which three runways, each having a length of 40 cm, a height of 13 cm, a floor width of 3 cm, and an upper portion width of 10 cm, are attached to each other in a Y shape at an angle of 120°, was used. […]
After the aforementioned mouse was placed at the end of any runway in the Y-maze, the mouse was freely searched for eight minutes. The number of times the mouse has entered the runway was counted, and this counted number of times was set to the total entry number. The number of times the mouse has continuously entered three different runways (for example, when three arms were represented by a, b, and c, respectively, in the case where the order of entry of runways is abccbacab, it was counted by 4) was set to spontaneous alternation behavior number. Spontaneous alternation behavior rate is calculated by Calculation Equation: Spontaneous alternation behavior rate=[spontaneous alternation behavior number/(total entry number−2)]×100. The calculated spontaneous alternation behavior rate was set to an index of spontaneous alternation behavior.
The measured value was represented by average value f standard error for each group. […]

T1 sequence (P21728 whole entry): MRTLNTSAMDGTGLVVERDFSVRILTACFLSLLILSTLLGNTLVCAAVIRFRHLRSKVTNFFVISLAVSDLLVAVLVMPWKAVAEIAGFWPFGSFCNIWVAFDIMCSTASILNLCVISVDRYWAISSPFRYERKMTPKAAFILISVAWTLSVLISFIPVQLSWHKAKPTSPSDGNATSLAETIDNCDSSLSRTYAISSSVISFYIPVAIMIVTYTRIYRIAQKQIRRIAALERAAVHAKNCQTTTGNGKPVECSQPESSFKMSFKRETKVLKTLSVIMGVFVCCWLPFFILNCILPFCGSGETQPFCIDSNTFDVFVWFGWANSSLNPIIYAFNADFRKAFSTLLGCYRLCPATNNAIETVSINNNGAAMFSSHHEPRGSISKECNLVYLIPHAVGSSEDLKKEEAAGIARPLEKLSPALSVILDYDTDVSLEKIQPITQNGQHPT

EC50 2-fold potentiation (test drug concentration by which the EC50 of dopamine is potentiated in 2-fold) [1]: 61 nM
Structure (SMILES): O=C(Cn1c(=O)oc2cccc(F)c21)N1CCCn2cc(-c3ccc(C(F)(F)F)cc3)nc2C1 [Ex1, 4-fluoro-3-(2-oxo-2-{2-[4-(trifluoromethyl)phenyl]-6,7-dihydro-5H-imidazo[1,2-a][1,4]diazepin-8(9H)-yl}ethyl)-1,3-benzoxazol-2(3H)-one]
Dat3: minimum effective dose (improving the executive function disorder, ED task) (male Long Evans rats): 0.003 mg/kg
Dat2: minimum effective dose (significantly improving spontaneous alternation behavior) (ddY male mouse): 0.03 mg/kg
